From ChEMBL document CHEMBL1201862, “PubChem BioAssay data set” (2004)
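A five-concentration, 48-hour dose response in 96-well plates underlies each endpoint, interpolated linearly between surrounding concentrations. The concentration for 50% growth inhibition is given as GI50.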 Activity calls are given as the source filed them. No stated cut-off is given here; in the data, active = GI50 up to about 1.1 µM and inactive = higher.

Tests used:
Experiment in all cases: inhibition of tumour cell growth, NCI panel, 48 h
[1] = system: A549
[2] = system: ACHN
[3] = system: CCRF-CEM
[4] = system: KM12
[5] = system: MDA-MB-231
[6] = system: MDA-MB-435
[7] = system: NCI-H460
[8] = system: NCI/ADR-RES
[9] = system: OVCAR-8
[10] = system: RPMI-8226
[11] = system: SF-268
[12] = system: SK-MEL-28
[13] = system: SN12C
[14] = system: SNB-19
[15] = system: SW-620
[16] = system: T47D
[17] = system: TK-10
[18] = system: U-251
[19] = system: UO-31
[20] = system: SF-539

SMILES | GI50 [1] | GI50 [2] | GI50 [3] | GI50 [4] | GI50 [5] | GI50 [6] | GI50 [7] | GI50 [8] | GI50 [9] | GI50 [10] | GI50 [11] | GI50 [12] | GI50 [13] | GI50 [14] | GI50 [15] | GI50 [16] | GI50 [17] | GI50 [18] | GI50 [19] | GI50 [20]
CN(C)Cc1cc(O)c(O)c(CN(C)C)c1 | 46.6 µM (inactive) | 34.5 µM (inactive) | 20.2 µM (inactive) | 94.2 µM (inactive) | > 100 µM (inactive) | > 100 µM (inactive) | 21.4 µM (inactive) | 19.3 µM (inactive) | 35.2 µM (inactive) | 35.7 µM (inactive) | 35.4 µM (inactive) | 51.9 µM (inactive) | 36.9 µM (inactive) | 50.9 µM (inactive) | 64.3 µM (inactive) | 49.9 µM (inactive) | 37.5 µM (inactive) | 36.6 µM (inactive) | 25.9 µM (inactive) | 
COc1c2c(c3c(c1CCC(=O)O)OC(C)(C)C=C3)OC(C)(C)C=C2 | 54.5 µM (inactive) | > 100 µM (inactive) |  | > 100 µM (inactive) | > 100 µM (inactive) | 28.9 µM (inactive) |  | > 100 µM (inactive) | > 100 µM (inactive) | 48.4 µM (inactive) | > 100 µM (inactive) | > 100 µM (inactive) | > 100 µM (inactive) | > 100 µM (inactive) | > 100 µM (inactive) | > 100 µM (inactive) | > 100 µM (inactive) | > 100 µM (inactive) | > 100 µM (inactive) | 
CCCCCC(=O)n1[nH]c(=O)n(-c2ccc(OC)cc2)c1=O | > 100 µM (inactive) | > 100 µM (inactive) | > 100 µM (inactive) | > 100 µM (inactive) | > 100 µM (inactive) | > 100 µM (inactive) | > 100 µM (inactive) | > 100 µM (inactive) | > 100 µM (inactive) | > 100 µM (inactive) | > 100 µM (inactive) | > 100 µM (inactive) | > 100 µM (inactive) | > 100 µM (inactive) | > 100 µM (inactive) | > 100 µM (inactive) | > 100 µM (inactive) | > 100 µM (inactive) | > 100 µM (inactive) | 
CC1=NN(c2ccccc2Cl)C2(C1)C(Cl)C(=O)N2c1nc2ccccc2s1 (stereo not given) | 55.7 µM (inactive) | 94.8 µM (inactive) |  | 55.6 µM (inactive) | 46.6 µM (inactive) | 41.8 µM (inactive) | 79.6 µM (inactive) | 65 µM (inactive) | 38.1 µM (inactive) | 21.7 µM (inactive) | 64.9 µM (inactive) |  | 31.8 µM (inactive) | 52.7 µM (inactive) | 63.4 µM (inactive) | 44.3 µM (inactive) | > 100 µM (inactive) | 28.6 µM (inactive) | 61.8 µM (inactive) | 
CN1CCN(Cn2nc(COc3ccc(Cl)cc3)n(/N=C/c3ccc(-c4ccc(Cl)cc4Cl)o3)c2=S)CC1 |  | 19.7 µM (inactive) | 0.247 µM (active) | 3.18 µM (inactive) | 7 µM (inactive) | 2.55 µM (inactive) | 17.8 µM (inactive) | 20.5 µM (inactive) | 4.89 µM (inactive) |  | 3.95 µM (inactive) | 13.9 µM (inactive) |  |  | 5.06 µM (inactive) | 6.64 µM (inactive) | 14.5 µM (inactive) | 10.9 µM (inactive) | 17.6 µM (inactive) | 26.4 µM (inactive)
CN1C(=O)NC(=O)/C(=C\Nc2ncccn2)C1=O | > 100 µM (inactive) | > 100 µM (inactive) |  | > 100 µM (inactive) | > 100 µM (inactive) | > 100 µM (inactive) | > 100 µM (inactive) | > 100 µM (inactive) | > 100 µM (inactive) |  | > 100 µM (inactive) | > 100 µM (inactive) | > 100 µM (inactive) | > 100 µM (inactive) | > 100 µM (inactive) | > 100 µM (inactive) | > 100 µM (inactive) | > 100 µM (inactive) | > 100 µM (inactive) | > 100 µM (inactive)
O=c1[nH][nH]c(=O)c2c1ccc1oc3ccccc3c12 | > 100 µM (inactive) | > 100 µM (inactive) | > 100 µM (inactive) | > 100 µM (inactive) | > 100 µM (inactive) | > 100 µM (inactive) | > 100 µM (inactive) |  | > 100 µM (inactive) | > 100 µM (inactive) | > 100 µM (inactive) | > 100 µM (inactive) | > 100 µM (inactive) | > 100 µM (inactive) | > 100 µM (inactive) | > 100 µM (inactive) | > 100 µM (inactive) | > 100 µM (inactive) | > 100 µM (inactive) | > 100 µM (inactive)
COC1(OC)N=C(N)C2(C#N)C(c3ccccc3)NC3=C(CCC3)C12C#N (stereo not given) | > 100 µM (inactive) | > 100 µM (inactive) | > 100 µM (inactive) | > 100 µM (inactive) | > 100 µM (inactive) | > 100 µM (inactive) | > 100 µM (inactive) | > 100 µM (inactive) | > 100 µM (inactive) | > 100 µM (inactive) | > 100 µM (inactive) | > 100 µM (inactive) | > 100 µM (inactive) | > 100 µM (inactive) | > 100 µM (inactive) | > 100 µM (inactive) | > 100 µM (inactive) | > 100 µM (inactive) | > 100 µM (inactive) | 
CC1C2CC(C(S(=O)(=O)O)C2=O)C1(C)C (stereo not given) |  | > 100 µM (inactive) | > 100 µM (inactive) | > 100 µM (inactive) | > 100 µM (inactive) | > 100 µM (inactive) | > 100 µM (inactive) |  | > 100 µM (inactive) |  | > 100 µM (inactive) | > 100 µM (inactive) | > 100 µM (inactive) | > 100 µM (inactive) | > 100 µM (inactive) | > 100 µM (inactive) | > 100 µM (inactive) | > 100 µM (inactive) | > 100 µM (inactive) | > 100 µM (inactive)
CCOc1cc(C(=O)O)c2c(ccc3ccc(OC)c(OC)c32)c1OC | > 100 µM (inactive) | > 100 µM (inactive) | > 100 µM (inactive) | > 100 µM (inactive) | > 100 µM (inactive) | > 100 µM (inactive) | > 100 µM (inactive) | > 100 µM (inactive) | > 100 µM (inactive) | > 100 µM (inactive) | > 100 µM (inactive) | > 100 µM (inactive) | > 100 µM (inactive) | > 100 µM (inactive) | > 100 µM (inactive) | > 100 µM (inactive) | > 100 µM (inactive) | > 100 µM (inactive) | > 100 µM (inactive) | 
O=C(NC(CO)CO)c1ccc2cc(C(=O)N3CC(CCl)c4ccc([N+](=O)[O-])cc43)[nH]c2c1 (stereo not given) | > 100 µM (inactive) | > 100 µM (inactive) | > 100 µM (inactive) | > 100 µM (inactive) | 66.1 µM (inactive) | > 100 µM (inactive) | > 100 µM (inactive) | > 100 µM (inactive) | > 100 µM (inactive) |  | > 100 µM (inactive) | > 100 µM (inactive) | > 100 µM (inactive) | > 100 µM (inactive) | > 100 µM (inactive) | 0.619 µM (active) | > 100 µM (inactive) | > 100 µM (inactive) | > 100 µM (inactive) | > 100 µM (inactive)
O=c1[nH]c(=O)n(C2OC(CO)C(O)C2O)cc1Oc1ccccc1 (stereo not given) | > 100 µM (inactive) | > 100 µM (inactive) | > 100 µM (inactive) | > 100 µM (inactive) | > 100 µM (inactive) | > 100 µM (inactive) | > 100 µM (inactive) | > 100 µM (inactive) | > 100 µM (inactive) |  | > 100 µM (inactive) | > 100 µM (inactive) | > 100 µM (inactive) | > 100 µM (inactive) | > 100 µM (inactive) | > 100 µM (inactive) | > 100 µM (inactive) | > 100 µM (inactive) |  | > 100 µM (inactive)
COc1cc(COC(=O)N2CCCCC2C(=O)O)c([N+](=O)[O-])cc1OC (stereo not given) | > 100 µM (inactive) | > 100 µM (inactive) | > 100 µM (inactive) | > 100 µM (inactive) |  | > 100 µM (inactive) | > 100 µM (inactive) | > 100 µM (inactive) | > 100 µM (inactive) | > 100 µM (inactive) | > 100 µM (inactive) | > 100 µM (inactive) | > 100 µM (inactive) | > 100 µM (inactive) | > 100 µM (inactive) | > 100 µM (inactive) | > 100 µM (inactive) | > 100 µM (inactive) | > 100 µM (inactive) | > 100 µM (inactive)
O=C1/C(=C/c2ccco2)N=C(c2ccccc2)N1c1cc2cc(Sc3ccccc3)ccc2[nH]1 | > 25 µM (inactive) | > 25 µM (inactive) | 2.72 µM (inactive) |  |  | 6.55 µM (inactive) |  | 10.2 µM (inactive) | 22.8 µM (inactive) | 0.457 µM (active) | > 25 µM (inactive) | > 25 µM (inactive) | 17.4 µM (inactive) | > 25 µM (inactive) | 13.1 µM (inactive) | 15.8 µM (inactive) |  |  | 18.8 µM (inactive) | 17.9 µM (inactive)
C=C[C@H]1CN2CCc3c([nH]c4c([C@H]5CCCN5C)c(O)ccc34)[C@@H]2C[C@@H]1C[C@H]1c2[nH]c3ccccc3c2CCN1C [STRYCHNOPENTAMINE] | 1.55 µM (inactive) | 1.78 µM (inactive) | 0.719 µM (active) | 1.36 µM (inactive) | 1.81 µM (inactive) | 1.43 µM (inactive) | 1.48 µM (inactive) | 1.74 µM (inactive) | 1.23 µM (inactive) | 0.653 µM (active) | 1.58 µM (inactive) | 1.76 µM (inactive) | 1.65 µM (inactive) | 1.95 µM (inactive) | 1.24 µM (inactive) | 1.8 µM (inactive) | 1.83 µM (inactive) | 1.43 µM (inactive) | 1.71 µM (inactive) | 
